Consider one compound from publication PMC5390315 (Scientific Reports, 2017).

The test system of data set [1] is HeLa. The data set is described as follows: Antiproliferative MTT assay, HeLa. The format is cell-based, human. Particulars: Homo sapiens, HeLa, 72 h, mean ± SE. The protocol: (§1) Human T-cell leukemia (Jurkat) and human B-cell leukemia (SEM and RS4;11) cells were grown in RPMI-1640 medium (Gibco, Milano, Italy). Breast adenocarcinoma (MCF-7), human cervix carcinoma (HeLa), human lung adenocarcinoma (A549) and human colon adenocarcinoma (HT-29) cells were grown in DMEM medium (Gibco, Milano, Italy), all supplemented with 115 units/mL penicillin G (Gibco, Milano, Italy), 115 μg/mL streptomycin (Invitrogen, Milano, Italy), and 10% fetal bovine serum (FBS; Invitrogen, Milano, Italy). Stock solutions (10 mM) of the different compounds were obtained by dissolving them in DMSO. Individual wells of a 96-well tissue culture microtiter plate were inoculated with 100 μL of complete medium containing 8 × 10^3 cells. The plates were incubated at 37 °C in a humidified 5% CO2 incubator for 18 h prior to the experiments. After medium removal, 100 μL of fresh medium containing the test compound at different concentrations was added to each well in triplicate and incubated at 37 °C for 72 h. The percentage of DMSO in the medium never exceeded 0.25%. This was also the maximum DMSO concentration in all cell-based assays described below.
Background: Formazan colour is commonly taken as a measure of viable cells.

Data set [2] relates to HeLa cells. The data set is described as follows: ROS production (H2-DCFDA), HeLa. As to conditions: 100 nM, untreated about 4%. The format is cell-based, human.
Data set [3] has as its system Jurkat cells. The data set is described as follows: Annexin-V/PI apoptosis assay, Jurkat. The class given is cell-based, human. As to conditions: 60 nM, 24 h. The protocol: (§2) Cell death was determined by flow cytometry of cells double stained with annexin V/FITC and PI. The Coulter Cytomics FC500 (Beckman Coulter) was used to measure the surface exposure of PS on apoptotic cells according to the manufacturer’s instructions (Annexin-V Fluos, Roche Diagnostics).

In data set [4] the test system is PBL not stimulated with PHA. The data set is described as follows: Cytotoxicity in resting peripheral blood lymphocytes. As to conditions: Homo sapiens, Lymphocyte, 72 h, MTT, mean ± SEM, read-out: IC50 PBLresting. The format is cell-based. The protocol: (§3) Peripheral blood lymphocytes (PBL) from healthy donors were obtained from human peripheral blood (leucocyte rich plasma- buffy coats) from healthy volunteers using the Lymphoprep (Fresenius KABI Norge AS) gradient density centrifugation.
(§4) After extensive washing, cells were resuspended (1.0 × 10^6 cells/mL) in RPMI-1640 with 10% FBS and incubated overnight. For cytotoxicity evaluations in proliferating PBL cultures, non-adherent cells were resuspended at 5 × 10^5 cells/mL in growth medium, containing 2.5 μg/mL PHA (Irvine Scientific). Different concentrations of the test compounds were added, and viability was determined 72 h later by the MTT test. For cytotoxicity evaluations in resting PBL cultures, non-adherent cells were resuspended (5 × 10^5 cells/mL) and treated for 72 h with the test compounds, as described above.

Data set [5] concerns A549. The data set can be described thus: Antiproliferative MTT assay, A549. The format is cell-based, human. As to conditions: Homo sapiens, A549, 72 h, mean ± SE. The protocol:
as §1

The test system of data set [6] is PBL stimulated with PHA. The data set is described as follows: Cytotoxicity in PHA-stimulated peripheral blood lymphocytes. The class given is cell-based. Particulars: Homo sapiens, Lymphocyte, 72 h, MTT, mean ± SEM, read-out: IC50 PBLPHA. The protocol: as §3, §4
Data set [7] has as its system MCF-7. The data set can be described thus: Antiproliferative MTT assay, MCF-7. The format is cell-based, human. As to conditions: Homo sapiens, MCF7, 72 h, mean ± SE. Here is the method: as §1
Data set [8] deals with B16 murine melanoma cells. The data set is described as follows: MTT assay on B16 murine melanoma cells. The format is cell-based. Particulars: Mus musculus.
The subject of data set [9] is panel of seven human tumor cell lines. The data set is described as follows: Antiproliferative activity, range over panel of seven human tumor cell lines. The format is cell-based. Particulars: read-out: IC50 values, range over the cell line panel. The protocol: as §1
In data set [10] the test system is BL6-B16 murine melanoma cells. The data set is described as follows: Mouse allograft tumor model (BL6-B16 melanoma). The class given is in vivo. An excerpt: Animal experiments were approved by our local animal ethics committee (OPBA, Organismo Preposto al Benessere degli Animali, Università degli Studi di Brescia, Italy) and were executed in accordance with national guidelines and regulations. Procedures involving animals and their care conformed with institutional guidelines that comply with national and international laws and policies (EEC Council Directive 86/609, OJ L 358, 12 December 1987) and with “ARRIVE” guidelines (Animals in Research Reporting In Vivo Experiments). Six week old C57BL/6 mice (Charles River, Calco) were injected subcutaneously into the dorsolateral flank with 2.5x10^5 BL6-B16 murine melanoma cells in 200 μL of PBS. When tumors were palpable, animals were treated intraperitoneally every other day with different doses of test compounds dissolved in 50 μL of DMSO. Tumors were measured in two dimensions, and tumor volume was calculated according to the formula V = (D × d^2)/2, where D and d are the major and minor perpendicular tumor diameters, respectively.

Data set [11] concerns Jurkat cells. The data set is described as follows: ROS production (H2-DCFDA), Jurkat. The format is cell-based, human. As to conditions: 100 nM, untreated about 4%.
The subject of data set [12] is HUVECs. The data set is described as follows: Disruption of capillary-like tubes on Matrigel. The class given is cell-based, human. Particulars: 100 nM (highest concentration), 24 h. The protocol:
HUVECs were prepared from human umbilical cord veins, as previously described. The adherent cells were maintained in M200 medium supplemented with LSGS (Low Serum Growth Supplement), containing FBS, hydrocortisone, hEGF, bFGF, heparin, gentamycin/amphotericin (Life Technologies, Monza, Italy). Once confluent, the cells were detached by a trypsin–EDTA solution and used in experiments from the first to sixth passages.
Matrigel matrix (Basement Membrane Matrix, BD Biosciences, Italy) was kept at 4 °C for 3 h, when 230 μL of Matrigel solution was added to each well of a 24-well plate. After gelling at 37 °C for 30 min, gels were overlaid with 500 μL of medium containing 6 × 10^4 HUVECs. The cells were incubated over Matrigel for 6 h to allow capillary tubes to form. Different concentrations of test compound were added in the cultures and incubated for different times, and the disappearance of existing vasculature was monitored and photographed (five fields for each well: the four quadrants and the center) at a 10x magnification. Phase contrast images were recorded using a digital camera and saved as TIFF files. Image analysis was carried out using ImageJ image analysis software, and dimensional (percent area covered by HUVECs and total length of HUVECs network per field) and topological parameters (number of meshes and branching points per field) were determined. Values were expressed as percent change from control cultures grown with complete medium.

Data set [13] has as its system HeLa cells. The data set is described as follows: Annexin-V/PI apoptosis assay, HeLa. The class given is cell-based, human. Particulars: 60 nM, 24 h. The protocol:
as §2

For data set [14], the system named is Jurkat. The data set is described as follows: Antiproliferative MTT assay, Jurkat. As to conditions: Homo sapiens, Jurkat, 72 h, mean ± SE. The class given is cell-based, human. The protocol:
as §1

Like-named read-outs stand apart in the source and are kept apart here.

As usually defined, the IC50 is the concentration needed to halve the response being measured.

As for `CCOc1ccc(-c2oc(C)nc2-c2cc(OC)c(OC)c(OC)c2)cc1` [Compound 4i, 4-(3,4,5-Trimethoxyphenyl)-5-(4-ethoxyphenyl)-2-methyloxazole], the concentration for half-maximal inhibition (IC50) turned out to be 0.9 ± 0.3 nM in data set [1]; 14900 ± 3500 nM in [4]; 0.5 ± 0.1 nM in data set [5]; 18300 ± 1500 nM in [6]; 4.5 ± 1.8 nM in data set [7]; 15.6 ± 1.9 nM in data set [8]. Further, the IC50 in data set [9] (Homo sapiens) was 0.5 to 20 nM; in data set [9] it was 0.5 to 20.2 nM; in data set [14], 4.1 ± 1.1 nM. The “DCF positive cells (ROS production)” value in data set [2] and in data set [11] was 25–30% throughout. For the same compound, the “apoptotic cells (annexin-V)” value in [3] was found to be 40%; in data set [13], 70%. In addition, the “reduction in tumor mass” value worked out at 34.9% in data set [10] (3.0 mg/kg i.p. on days 9, 11 and 14); 52.5% in [10] (7.5 mg/kg i.p. on days 9, 11 and 14). Further, the “signs of toxicity in mice” value in [10] (highest dose (7.5 mg/kg i.p.)) is listed as “did not show any sign of toxicity”. Moreover, the animal body weight result in [10] (highest dose (7.5 mg/kg i.p.), data not shown) is “did not cause a decrease in animal body weight”. In data set [12], the “antivascular effect on Matrigel preformed tubular structures” value is “did not show a significant antivascular effect”.
